The subject of this test is CBZ aptamer (DNA, aptamer) CGAGGCTCTCGGGACGACGGGGCACGGGCCTCTGGGTCGGCATGGCCCGTCGTCCCGCCTTTAGGATTTACAG
The following applies: upper bound only; assay and buffer not stated.

In general, Kd refers to the equilibrium constant for the complex coming apart. `NC(=O)N1c2ccccc2C=Cc2ccccc21` had a Kd of less than 0.012 µM.
